Here are results for 6 compounds from publication PMC6295285 (Pharmaceutical research, 2018).

One data set deals with T1, human OCT2 (Homo sapiens, UniProt O15244).
T1 sequence (O15244 1-555): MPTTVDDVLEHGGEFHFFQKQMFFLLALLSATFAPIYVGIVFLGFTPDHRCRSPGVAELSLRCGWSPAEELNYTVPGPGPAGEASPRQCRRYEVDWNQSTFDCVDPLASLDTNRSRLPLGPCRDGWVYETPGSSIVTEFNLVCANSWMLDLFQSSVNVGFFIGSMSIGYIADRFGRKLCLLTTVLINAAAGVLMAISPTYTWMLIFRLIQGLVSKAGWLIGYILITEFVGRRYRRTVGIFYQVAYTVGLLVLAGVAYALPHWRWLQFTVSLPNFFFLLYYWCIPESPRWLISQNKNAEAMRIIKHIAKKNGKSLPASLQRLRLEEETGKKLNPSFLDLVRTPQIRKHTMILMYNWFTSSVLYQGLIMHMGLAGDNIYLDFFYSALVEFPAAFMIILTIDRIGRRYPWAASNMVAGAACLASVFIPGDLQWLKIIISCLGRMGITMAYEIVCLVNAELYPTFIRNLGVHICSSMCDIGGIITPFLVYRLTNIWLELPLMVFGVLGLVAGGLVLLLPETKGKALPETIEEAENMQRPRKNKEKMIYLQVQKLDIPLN
The data set is described as follows: Inhibition of metformin uptake in HEK-293 cells overexpressing hOCT2. Particulars: for Effect on hOCT2 activity at low concentrations (hOCT2-enhancer): low but clinically relevant concentrations (less than 10 μM); for Selectivity category hOCT2 versus hMATEs: comparison of IC50 for hOCT2, hMATE1, hMATE2-K.

The subject of the next data set is HEK-control cells. The experiment in a line: Cisplatin accumulation in HEK-control cells. Type of data set: cell-based, human. Particulars: carvedilol 10 μM + cisplatin 100 μM 2 h, then 22 h normal medium.
For another data set, the target named is T2, human MATE1 (Homo sapiens, UniProt Q96FL8).
T2 sequence (Q96FL8 1-570): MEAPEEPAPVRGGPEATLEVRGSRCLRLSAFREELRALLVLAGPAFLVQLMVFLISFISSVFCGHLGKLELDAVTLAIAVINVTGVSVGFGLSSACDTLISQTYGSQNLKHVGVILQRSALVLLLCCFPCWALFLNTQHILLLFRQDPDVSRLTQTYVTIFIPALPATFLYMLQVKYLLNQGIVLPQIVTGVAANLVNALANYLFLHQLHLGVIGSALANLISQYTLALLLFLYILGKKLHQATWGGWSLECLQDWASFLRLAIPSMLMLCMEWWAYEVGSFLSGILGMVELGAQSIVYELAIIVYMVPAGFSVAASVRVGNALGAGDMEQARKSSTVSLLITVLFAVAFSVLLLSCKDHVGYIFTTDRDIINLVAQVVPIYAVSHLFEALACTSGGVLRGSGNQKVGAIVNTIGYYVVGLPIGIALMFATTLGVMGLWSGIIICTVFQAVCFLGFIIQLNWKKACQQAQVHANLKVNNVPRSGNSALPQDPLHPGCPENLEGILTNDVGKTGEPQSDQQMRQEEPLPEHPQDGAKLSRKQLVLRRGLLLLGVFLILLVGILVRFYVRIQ
The experiment in a line: Inhibition of metformin uptake in HEK-293 cells overexpressing hMATE1. Format: cell-based. Particulars: IC50 for inhibition of hMATE1, metformin 50 μM probe substrate, HEK293-hMATE1.

Data set [1] in a line: Metformin pharmacokinetics in mice with carvedilol. Format: in vivo, mouse. Particulars: carvedilol 2 mg/kg; at 30, 45 and 60 min.
For data set [2] the following is noted: cited from earlier work.
For the next data set, the target named is T3, mouse Oct1 (Mus musculus, UniProt O08966).
T3 sequence (O08966 1-556): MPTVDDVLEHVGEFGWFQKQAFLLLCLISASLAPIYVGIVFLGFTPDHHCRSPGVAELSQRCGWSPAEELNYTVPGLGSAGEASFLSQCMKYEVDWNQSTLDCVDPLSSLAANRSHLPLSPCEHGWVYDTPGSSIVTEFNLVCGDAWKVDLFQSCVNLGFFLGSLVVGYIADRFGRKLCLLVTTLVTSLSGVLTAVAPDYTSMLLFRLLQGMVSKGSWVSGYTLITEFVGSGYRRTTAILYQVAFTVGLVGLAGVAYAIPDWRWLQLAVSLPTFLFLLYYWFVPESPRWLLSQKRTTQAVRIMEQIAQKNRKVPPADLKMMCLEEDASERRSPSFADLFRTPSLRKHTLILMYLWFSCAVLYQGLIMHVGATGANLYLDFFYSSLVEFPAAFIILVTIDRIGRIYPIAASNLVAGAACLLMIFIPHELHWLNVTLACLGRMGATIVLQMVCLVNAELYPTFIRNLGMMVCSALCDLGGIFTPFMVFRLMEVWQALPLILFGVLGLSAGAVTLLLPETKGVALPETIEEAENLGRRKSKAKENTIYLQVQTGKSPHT
The data set is described as follows: Inhibition of metformin uptake in HEK-293 cells overexpressing mouse Oct1. Format: cell-based.

Data set [3] has as its system HEK-hOCT2 cells. The experiment in a line: Cisplatin accumulation in HEK-hOCT2 cells. Format: cell-based, human. As to conditions: carvedilol 10 μM + cisplatin 100 μM 2 h, then 22 h normal medium.
For another data set, the target named is T4, mouse Mate1 (Mus musculus, UniProt Q8K0H1).
T4 sequence (Q8K0H1 1-567): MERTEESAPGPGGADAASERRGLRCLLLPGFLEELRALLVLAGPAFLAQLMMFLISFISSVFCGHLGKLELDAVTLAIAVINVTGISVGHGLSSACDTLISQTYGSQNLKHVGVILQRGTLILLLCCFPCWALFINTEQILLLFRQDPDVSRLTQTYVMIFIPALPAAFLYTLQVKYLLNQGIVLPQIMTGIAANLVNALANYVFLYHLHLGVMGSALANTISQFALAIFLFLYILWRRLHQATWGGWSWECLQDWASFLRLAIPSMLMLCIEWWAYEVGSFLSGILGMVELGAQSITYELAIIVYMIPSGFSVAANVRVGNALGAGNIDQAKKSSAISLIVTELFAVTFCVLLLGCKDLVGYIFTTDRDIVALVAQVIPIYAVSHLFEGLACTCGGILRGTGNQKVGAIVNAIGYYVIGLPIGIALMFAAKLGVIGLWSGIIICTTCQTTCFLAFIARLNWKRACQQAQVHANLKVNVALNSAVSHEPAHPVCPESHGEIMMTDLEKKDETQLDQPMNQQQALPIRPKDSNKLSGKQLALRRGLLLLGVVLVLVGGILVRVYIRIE
The data set is described as follows: Inhibition of metformin uptake in HEK-293 cells overexpressing mouse Mate1. Format: cell-based.

Another data set has as its system C57BL/6J mice. The data set is described as follows: Cisplatin-induced nephrotoxicity in mice. Format: in vivo, mouse. Particulars: 72 h.
The next data set addresses T5, human OCT1 (Homo sapiens, UniProt O15245).
T5 sequence (O15245 1-554): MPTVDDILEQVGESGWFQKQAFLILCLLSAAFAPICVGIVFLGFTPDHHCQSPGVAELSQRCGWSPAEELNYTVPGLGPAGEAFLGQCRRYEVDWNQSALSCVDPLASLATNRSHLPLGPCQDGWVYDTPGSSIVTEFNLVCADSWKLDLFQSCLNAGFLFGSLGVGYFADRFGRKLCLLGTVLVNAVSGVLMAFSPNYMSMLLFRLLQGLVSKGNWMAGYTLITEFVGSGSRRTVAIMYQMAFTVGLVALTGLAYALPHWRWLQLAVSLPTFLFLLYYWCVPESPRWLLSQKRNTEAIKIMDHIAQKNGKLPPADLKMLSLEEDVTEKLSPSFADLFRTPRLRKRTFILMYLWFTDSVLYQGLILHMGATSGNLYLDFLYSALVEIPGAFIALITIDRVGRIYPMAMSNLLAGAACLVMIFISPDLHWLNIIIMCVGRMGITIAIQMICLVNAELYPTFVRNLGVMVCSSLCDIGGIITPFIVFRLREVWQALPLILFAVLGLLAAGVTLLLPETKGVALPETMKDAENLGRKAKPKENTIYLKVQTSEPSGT
The data set is described as follows: Inhibition of metformin uptake in HEK-293 cells overexpressing hOCT1. Format: cell-based.

Data set [4] concerns HEK-hOCT2 cells. The experiment in a line: Cisplatin cytotoxicity, cell viability by CCK-8. Type of data set: cell-based, human. As to conditions: carvedilol 10 μM + cisplatin 100 μM 2 h, then 22 h.
The target of another data set is T6, mouse Oct2 (Mus musculus, UniProt O70577).
T6 sequence (O70577 1-553): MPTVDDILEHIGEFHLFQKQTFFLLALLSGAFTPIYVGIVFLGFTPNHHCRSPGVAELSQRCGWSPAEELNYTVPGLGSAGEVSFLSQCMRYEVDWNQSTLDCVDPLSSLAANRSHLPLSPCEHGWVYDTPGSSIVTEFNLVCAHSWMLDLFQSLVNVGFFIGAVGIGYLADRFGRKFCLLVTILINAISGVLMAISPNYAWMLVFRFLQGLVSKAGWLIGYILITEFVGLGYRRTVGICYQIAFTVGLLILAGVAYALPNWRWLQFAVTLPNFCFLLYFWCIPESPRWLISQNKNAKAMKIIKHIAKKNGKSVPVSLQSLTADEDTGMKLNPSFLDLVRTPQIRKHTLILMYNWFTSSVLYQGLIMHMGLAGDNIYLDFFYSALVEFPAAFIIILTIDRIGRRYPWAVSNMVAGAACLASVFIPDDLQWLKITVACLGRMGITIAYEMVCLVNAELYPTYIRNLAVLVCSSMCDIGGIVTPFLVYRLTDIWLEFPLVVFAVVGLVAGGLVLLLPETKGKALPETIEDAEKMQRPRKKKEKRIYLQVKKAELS
The experiment in a line: Inhibition of metformin uptake in HEK-293 cells overexpressing mouse Oct2. Format: cell-based.

[5] abbreviates: carvedilol 2 mg/kg x2 + cisplatin 10 mg/kg.

The structures appear in SMILES notation.

Regarding `CC(C)(C)NC(=O)[C@@H]1C[C@@H]2CCCC[C@@H]2CN1C[C@@H](O)[C@H](Cc1ccccc1)NC(=O)[C@H](CC(N)=O)NC(=O)c1ccc2ccccc2n1` [Saquinavir], at human OCT2, the “Effect on hOCT2-mediated metformin uptake at high concentrations” value (“Effect … at high concentrations” below) is listed as “could inhibit hOCT2-mediated metformin uptake” and the “Effect on hOCT2 activity at low concentrations (hOCT2-enhancer)” value (“Effect on hOCT2 activity” for short) is given as “increase hOCT2 activity”.

For `CCCCOc1ccc(CC(=O)NO)cc1` [Bufexamac], on human OCT2, the “Selectivity category hOCT2 versus hMATEs” value is on record as “selective hOCT2 inhibitors”.

As to `CCC(C)n1ncn(-c2ccc(N3CCN(c4ccc(OCC5COC(Cn6cncn6)(c6ccc(Cl)cc6Cl)O5)cc4)CC3)cc2)c1=O` (stereo not shown) [Itraconazole], on human OCT2, the “Effect … at high concentrations” value is on record as “could inhibit hOCT2-mediated metformin uptake” and the “Effect on hOCT2 activity” value was “increase hOCT2 activity”.

Consider `C(=C\c1ccccc1)/CN1CCN(C(c2ccccc2)c2ccccc2)CC1` [Cimnasizine], for which, on human OCT2, the “Effect … at high concentrations” value is “could inhibit hOCT2-mediated metformin uptake” and the “Effect on hOCT2 activity” value is “increase hOCT2 activity”.

As a reminder, the IC50 is the point on the concentration scale where inhibition reaches its midpoint. A high value points to a need for much substance. `COc1ccccc1OCCNCC(O)COc1cccc2[nH]c3ccccc3c12` (stereo not shown) [Carvedilol]: the “Accumulation of cisplatin in control cells” value in the data set on HEK-control cells was found to be 3.87 ± 0.06 ppm/mg protein. The IC50 against human MATE1 is 103 µM; against mouse Oct1 it was 2.8 µM; against mouse Mate1, 67 µM; against human OCT1, 6.4 µM; at mouse Oct2, 23.1 µM. Also, the “Plasma concentrations of metformin compared to vehicle” value in [1] was “significantly increased”. For the same compound, the “Time to peak plasma concentration” value in data set [2] (after oral administration) was 1—2 h. Also, the Oral bioavailability in data set [2] (human, oral) was 24%. For the same compound, the Plasma binding result in [2] (mostly bound to albumin) is given as “approximately 95%”. Besides, in data set [2] (oral administration), the Terminal half-life is recorded as 6—10 h. Moreover, the “Selectivity category hOCT2 versus hMATEs” value on human OCT2 is given as “selective hOCT2 inhibitors”. Also, the “Accumulation of cisplatin in HEK-hOCT2 stable cells” value in the data set on HEK-hOCT2 cells [3] is 3.77 ± 0.02 ppm/mg protein. Also, in the data set on C57BL/6J mice (setting [5]), the “Kidney histology (renal damage), co-administration” value is reported as “substantially ameliorated”. Besides, in the data set on C57BL/6J mice (setting [5]), the “Kim-1 gene transcripts in kidney, co-administration” value is listed as “almost be brought down to the normal base”. Also, the “Kidney histology, treatment-only group” value in the data set on C57BL/6J mice (carvedilol only) is recorded as “No visible morphological change”. The “Cell viability of cisplatin-treated HEK-hOCT2 cells with co-treatment” value with HEK-hOCT2 cells [4] is listed as “significantly rescued”.

For `CC(C)C(=O)Nc1ccc([N+](=O)[O-])c(C(F)(F)F)c1` [Flutamide], on human OCT2, the “Selectivity category hOCT2 versus hMATEs” value is “selective hOCT2 inhibitors”.
